Experiments:
Assay in all cases: Kinase panel enzymatic inhibition assay (Nanosyn)
Format in all cases: biochemical
Settings in all cases: compound 5 μM; ATP at Km; 30-minute pre-incubation
[1] = target: T1, Abl1 (Homo sapiens, UniProt P00519)
T1 construct: purchased Nanosyn (contract screening)
In short: (§1)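 Inhibition is expressed as percent at 5 μM or as IC50, with ATP set at the Km of each kinase and a 30-minute compound pre-incubation. Detection used an accepted enzymatic format such as Caliper mobility shift.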

[2] = target: T2, Abl2 (Homo sapiens, UniProt P42684)
T2 construct: purchased Nanosyn (contract screening)
In short: as §1

[3] = target: T3, BLK (Homo sapiens, UniProt P51451)
T3 construct: purchased Nanosyn (contract screening)
In short: as §1

[4] = target: T4, BRK (Homo sapiens, UniProt Q13882)
T4 construct: purchased Nanosyn (contract screening)
T4 sequence (Q13882 whole entry): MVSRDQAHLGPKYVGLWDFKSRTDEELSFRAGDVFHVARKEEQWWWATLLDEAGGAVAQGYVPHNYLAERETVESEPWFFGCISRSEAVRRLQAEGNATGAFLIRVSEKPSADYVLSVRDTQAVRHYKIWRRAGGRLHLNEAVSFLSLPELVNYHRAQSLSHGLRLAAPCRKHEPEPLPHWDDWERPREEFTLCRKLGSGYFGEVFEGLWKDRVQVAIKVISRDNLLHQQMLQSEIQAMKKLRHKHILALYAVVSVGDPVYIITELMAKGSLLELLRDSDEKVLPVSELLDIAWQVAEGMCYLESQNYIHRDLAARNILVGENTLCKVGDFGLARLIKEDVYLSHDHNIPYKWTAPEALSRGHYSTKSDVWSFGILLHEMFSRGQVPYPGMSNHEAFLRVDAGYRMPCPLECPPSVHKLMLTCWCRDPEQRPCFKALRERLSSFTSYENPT
In short: as §1

[5] = target: T5, CLK4 (Homo sapiens, UniProt Q9HAZ1)
T5 construct: purchased Nanosyn (contract screening)
In short: as §1

[6] = target: T6, CSF1R (Homo sapiens, UniProt P07333)
T6 construct: purchased Nanosyn (contract screening)
T6 sequence (P07333 20-972): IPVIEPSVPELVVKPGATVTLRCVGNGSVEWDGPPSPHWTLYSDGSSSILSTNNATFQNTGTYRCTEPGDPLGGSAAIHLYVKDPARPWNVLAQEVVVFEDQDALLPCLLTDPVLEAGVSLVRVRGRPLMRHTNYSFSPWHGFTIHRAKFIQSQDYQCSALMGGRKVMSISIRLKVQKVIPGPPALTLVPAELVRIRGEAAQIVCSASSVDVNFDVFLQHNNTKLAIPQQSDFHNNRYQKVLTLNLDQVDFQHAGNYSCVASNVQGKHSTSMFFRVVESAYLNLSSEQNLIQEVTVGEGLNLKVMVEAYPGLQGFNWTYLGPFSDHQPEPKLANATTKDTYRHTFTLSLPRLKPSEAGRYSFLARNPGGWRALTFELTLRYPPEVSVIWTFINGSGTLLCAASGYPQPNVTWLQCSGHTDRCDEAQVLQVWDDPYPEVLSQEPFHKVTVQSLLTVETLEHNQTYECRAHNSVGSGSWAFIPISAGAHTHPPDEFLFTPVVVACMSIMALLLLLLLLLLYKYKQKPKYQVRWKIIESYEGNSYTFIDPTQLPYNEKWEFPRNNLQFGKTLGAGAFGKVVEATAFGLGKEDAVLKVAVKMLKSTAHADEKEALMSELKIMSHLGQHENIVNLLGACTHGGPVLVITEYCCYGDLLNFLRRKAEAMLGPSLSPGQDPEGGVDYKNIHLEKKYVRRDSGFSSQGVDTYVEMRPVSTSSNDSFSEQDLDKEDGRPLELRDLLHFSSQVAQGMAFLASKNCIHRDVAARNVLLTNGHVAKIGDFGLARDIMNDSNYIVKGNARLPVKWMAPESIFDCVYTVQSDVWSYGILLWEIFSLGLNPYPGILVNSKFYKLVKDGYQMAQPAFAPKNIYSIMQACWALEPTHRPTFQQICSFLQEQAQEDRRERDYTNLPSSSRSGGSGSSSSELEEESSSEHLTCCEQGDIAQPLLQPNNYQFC
In short: as §1

[7] = target: T7, DDR1 (Homo sapiens, UniProt Q08345)
T7 construct: purchased Nanosyn (contract screening)
In short: as §1

[8] = tested on: EPH
In short: as §1

[9] = target: T8, LYNa (Homo sapiens, UniProt P07948)
T8 construct: purchased Nanosyn (contract screening)
T8 sequence (P07948 whole entry): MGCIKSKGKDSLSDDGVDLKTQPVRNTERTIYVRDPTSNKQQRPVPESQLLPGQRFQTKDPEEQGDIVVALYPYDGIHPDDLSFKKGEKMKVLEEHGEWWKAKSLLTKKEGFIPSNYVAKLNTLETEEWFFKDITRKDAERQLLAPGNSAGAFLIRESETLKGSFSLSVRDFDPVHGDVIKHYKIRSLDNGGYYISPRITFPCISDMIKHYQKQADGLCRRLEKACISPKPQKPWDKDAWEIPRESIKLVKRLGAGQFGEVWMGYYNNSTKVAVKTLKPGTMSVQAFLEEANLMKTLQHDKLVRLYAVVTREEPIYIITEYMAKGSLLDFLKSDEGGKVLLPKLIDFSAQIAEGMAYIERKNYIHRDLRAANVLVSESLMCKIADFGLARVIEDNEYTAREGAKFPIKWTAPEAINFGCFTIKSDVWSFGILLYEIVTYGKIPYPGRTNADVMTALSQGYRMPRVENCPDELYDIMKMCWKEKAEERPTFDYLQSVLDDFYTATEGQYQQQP
In short: as §1

[10] = target: T9, PDGFRb (Homo sapiens, UniProt P09619)
T9 construct: Nanosyn (contract laboratory that ran the panel)
In short: as §1

[11] = target: T10, PIKfyve (Homo sapiens, UniProt Q9Y2I7)
T10 construct: Nanosyn (contract laboratory that ran the panel)
T10 sequence (Q9Y2I7 whole entry): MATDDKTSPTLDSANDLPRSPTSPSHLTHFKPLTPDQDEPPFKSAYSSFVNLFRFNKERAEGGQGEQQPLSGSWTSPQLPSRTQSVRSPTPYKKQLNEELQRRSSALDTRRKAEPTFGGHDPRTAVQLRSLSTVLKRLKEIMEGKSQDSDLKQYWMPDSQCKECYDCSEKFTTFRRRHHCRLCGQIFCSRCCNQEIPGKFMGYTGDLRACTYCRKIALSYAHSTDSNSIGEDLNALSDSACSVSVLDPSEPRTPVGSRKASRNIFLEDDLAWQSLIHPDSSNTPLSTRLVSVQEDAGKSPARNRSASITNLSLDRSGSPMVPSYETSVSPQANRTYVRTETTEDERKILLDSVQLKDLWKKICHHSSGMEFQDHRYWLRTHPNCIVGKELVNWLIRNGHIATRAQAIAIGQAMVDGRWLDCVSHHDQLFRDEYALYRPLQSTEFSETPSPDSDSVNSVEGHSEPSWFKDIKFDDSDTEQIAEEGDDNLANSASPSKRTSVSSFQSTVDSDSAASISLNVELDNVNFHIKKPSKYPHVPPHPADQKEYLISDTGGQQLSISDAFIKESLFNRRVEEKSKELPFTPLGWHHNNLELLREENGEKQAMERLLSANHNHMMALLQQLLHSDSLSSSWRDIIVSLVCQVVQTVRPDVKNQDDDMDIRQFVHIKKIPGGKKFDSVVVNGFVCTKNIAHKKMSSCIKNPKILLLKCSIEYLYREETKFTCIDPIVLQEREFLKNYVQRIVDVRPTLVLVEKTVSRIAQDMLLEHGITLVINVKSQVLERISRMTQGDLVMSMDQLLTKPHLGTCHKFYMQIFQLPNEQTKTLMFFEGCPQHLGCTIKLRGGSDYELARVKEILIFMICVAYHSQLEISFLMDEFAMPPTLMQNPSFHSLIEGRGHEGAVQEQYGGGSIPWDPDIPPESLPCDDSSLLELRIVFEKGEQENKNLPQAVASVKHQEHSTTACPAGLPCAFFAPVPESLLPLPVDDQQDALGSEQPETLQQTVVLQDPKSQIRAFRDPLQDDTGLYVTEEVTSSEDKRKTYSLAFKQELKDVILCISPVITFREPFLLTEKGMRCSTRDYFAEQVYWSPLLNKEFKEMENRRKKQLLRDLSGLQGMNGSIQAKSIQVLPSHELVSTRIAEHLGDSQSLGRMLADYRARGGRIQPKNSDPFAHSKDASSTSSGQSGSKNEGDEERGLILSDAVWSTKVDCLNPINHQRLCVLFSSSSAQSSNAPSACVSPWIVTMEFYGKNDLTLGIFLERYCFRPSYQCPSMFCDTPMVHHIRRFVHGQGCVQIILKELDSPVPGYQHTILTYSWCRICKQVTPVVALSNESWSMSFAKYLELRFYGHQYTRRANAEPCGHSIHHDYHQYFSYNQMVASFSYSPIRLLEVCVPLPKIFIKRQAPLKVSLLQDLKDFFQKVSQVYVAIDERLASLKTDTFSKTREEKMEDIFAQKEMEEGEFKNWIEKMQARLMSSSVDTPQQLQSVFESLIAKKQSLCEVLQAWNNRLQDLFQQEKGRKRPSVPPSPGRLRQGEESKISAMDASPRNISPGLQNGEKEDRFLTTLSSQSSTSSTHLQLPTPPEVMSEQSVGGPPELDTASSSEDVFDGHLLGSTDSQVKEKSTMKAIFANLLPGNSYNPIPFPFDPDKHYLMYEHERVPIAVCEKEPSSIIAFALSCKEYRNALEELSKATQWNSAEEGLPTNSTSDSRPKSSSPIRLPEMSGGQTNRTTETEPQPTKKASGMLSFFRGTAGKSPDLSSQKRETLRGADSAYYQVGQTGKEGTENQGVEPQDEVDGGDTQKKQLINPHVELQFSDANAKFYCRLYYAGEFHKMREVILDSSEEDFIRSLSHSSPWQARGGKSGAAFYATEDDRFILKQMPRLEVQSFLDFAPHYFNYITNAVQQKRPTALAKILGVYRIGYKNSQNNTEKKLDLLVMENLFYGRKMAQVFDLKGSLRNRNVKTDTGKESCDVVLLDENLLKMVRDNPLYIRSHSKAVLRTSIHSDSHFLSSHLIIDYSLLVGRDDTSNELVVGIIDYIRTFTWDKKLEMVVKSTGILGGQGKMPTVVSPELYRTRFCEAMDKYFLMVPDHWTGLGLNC
In short: as §1

[12] = target: T11, RET (Homo sapiens, UniProt P07949)
T11 construct: Nanosyn (contract laboratory that ran the panel)
T11 sequence (P07949 29-1114): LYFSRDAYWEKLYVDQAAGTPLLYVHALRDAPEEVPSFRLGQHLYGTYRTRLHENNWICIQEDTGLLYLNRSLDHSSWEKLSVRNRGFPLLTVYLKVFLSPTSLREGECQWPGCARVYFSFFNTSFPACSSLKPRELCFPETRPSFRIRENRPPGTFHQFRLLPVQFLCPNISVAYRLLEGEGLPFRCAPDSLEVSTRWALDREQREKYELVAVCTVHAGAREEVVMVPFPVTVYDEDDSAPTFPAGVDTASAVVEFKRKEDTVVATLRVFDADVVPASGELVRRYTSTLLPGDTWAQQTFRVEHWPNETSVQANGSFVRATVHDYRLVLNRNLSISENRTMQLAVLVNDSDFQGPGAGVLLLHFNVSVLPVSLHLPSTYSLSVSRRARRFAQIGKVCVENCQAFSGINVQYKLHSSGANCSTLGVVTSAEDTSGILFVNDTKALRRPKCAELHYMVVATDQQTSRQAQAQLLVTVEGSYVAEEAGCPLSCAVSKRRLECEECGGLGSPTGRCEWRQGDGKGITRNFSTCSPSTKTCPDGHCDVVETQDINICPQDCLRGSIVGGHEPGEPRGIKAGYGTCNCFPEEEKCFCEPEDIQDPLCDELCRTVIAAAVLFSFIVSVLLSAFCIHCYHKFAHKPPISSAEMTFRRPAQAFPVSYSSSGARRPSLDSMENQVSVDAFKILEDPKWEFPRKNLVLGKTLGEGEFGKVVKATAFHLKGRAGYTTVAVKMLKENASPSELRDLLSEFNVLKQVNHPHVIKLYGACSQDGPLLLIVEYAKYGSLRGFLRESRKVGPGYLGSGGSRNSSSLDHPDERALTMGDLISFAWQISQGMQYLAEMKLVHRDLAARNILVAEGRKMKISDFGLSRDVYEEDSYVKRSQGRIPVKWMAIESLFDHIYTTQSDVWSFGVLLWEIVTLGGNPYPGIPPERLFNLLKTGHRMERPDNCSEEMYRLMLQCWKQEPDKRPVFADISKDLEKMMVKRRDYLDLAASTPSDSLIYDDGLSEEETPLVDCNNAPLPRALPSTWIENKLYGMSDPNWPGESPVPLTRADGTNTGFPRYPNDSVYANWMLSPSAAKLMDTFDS
In short: as §1

[13] = target: T12, SGK3 (Homo sapiens, UniProt Q96BR1)
T12 construct: Nanosyn (contract laboratory that ran the panel)
T12 sequence (Q96BR1 1-496): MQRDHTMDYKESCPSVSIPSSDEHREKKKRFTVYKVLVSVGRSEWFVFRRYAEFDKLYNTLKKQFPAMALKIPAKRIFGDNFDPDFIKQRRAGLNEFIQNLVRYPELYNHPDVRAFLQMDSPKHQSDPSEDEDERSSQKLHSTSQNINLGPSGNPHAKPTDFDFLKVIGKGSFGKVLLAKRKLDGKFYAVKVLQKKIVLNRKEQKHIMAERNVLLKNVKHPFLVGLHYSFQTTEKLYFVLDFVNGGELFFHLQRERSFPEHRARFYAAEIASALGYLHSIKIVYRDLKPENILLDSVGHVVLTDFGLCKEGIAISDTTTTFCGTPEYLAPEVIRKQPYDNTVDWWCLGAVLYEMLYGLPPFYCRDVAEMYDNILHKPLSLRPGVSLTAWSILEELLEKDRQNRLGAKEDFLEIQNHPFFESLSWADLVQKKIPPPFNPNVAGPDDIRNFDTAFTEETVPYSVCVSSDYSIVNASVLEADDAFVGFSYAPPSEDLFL
In short: as §1

[14] = target: T13, TAOK2 (Homo sapiens, UniProt Q9UL54)
T13 construct: Nanosyn (contract laboratory that ran the panel)
T13 sequence (Q9UL54 1-1235): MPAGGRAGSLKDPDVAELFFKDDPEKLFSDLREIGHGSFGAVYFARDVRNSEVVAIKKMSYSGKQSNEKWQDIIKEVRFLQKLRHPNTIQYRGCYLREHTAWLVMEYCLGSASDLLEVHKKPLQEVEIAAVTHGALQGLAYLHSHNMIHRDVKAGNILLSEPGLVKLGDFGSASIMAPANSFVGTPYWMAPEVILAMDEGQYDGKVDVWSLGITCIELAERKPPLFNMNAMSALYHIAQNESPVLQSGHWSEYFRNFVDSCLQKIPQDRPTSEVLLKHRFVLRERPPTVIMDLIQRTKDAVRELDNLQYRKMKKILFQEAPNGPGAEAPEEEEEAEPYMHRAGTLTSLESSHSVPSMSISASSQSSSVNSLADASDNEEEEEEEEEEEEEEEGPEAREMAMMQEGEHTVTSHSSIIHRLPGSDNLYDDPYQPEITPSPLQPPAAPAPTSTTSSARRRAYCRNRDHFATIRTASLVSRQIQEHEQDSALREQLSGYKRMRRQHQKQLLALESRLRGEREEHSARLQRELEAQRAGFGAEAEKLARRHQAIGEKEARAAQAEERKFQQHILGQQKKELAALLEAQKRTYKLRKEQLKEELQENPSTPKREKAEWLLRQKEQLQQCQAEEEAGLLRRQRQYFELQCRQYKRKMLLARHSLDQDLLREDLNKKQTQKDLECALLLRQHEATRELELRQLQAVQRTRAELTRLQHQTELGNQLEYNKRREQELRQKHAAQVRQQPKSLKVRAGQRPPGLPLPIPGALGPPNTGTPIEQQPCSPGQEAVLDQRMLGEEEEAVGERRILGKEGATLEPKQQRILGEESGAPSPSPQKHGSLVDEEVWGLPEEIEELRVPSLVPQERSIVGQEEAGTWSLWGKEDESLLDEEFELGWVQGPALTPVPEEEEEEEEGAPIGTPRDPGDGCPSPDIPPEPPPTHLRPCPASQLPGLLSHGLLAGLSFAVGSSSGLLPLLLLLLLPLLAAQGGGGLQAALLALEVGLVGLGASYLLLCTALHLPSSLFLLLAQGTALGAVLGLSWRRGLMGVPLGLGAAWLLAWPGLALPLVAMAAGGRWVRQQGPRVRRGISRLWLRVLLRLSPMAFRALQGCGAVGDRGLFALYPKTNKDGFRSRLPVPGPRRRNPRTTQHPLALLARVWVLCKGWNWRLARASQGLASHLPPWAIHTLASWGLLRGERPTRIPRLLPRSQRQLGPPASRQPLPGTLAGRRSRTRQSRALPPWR
In short: as §1

[15] = target: T14, ZAK (Homo sapiens, UniProt Q9NYL2)
T14 construct: Nanosyn (contract laboratory that ran the panel)
In short: as §1

inhibition at 5 µM [1]: ≥ 95%
inhibition at 5 µM [2]: 80 to 89%
inhibition at 5 µM [3]: < 79%
inhibition at 5 µM [4]: < 79%
inhibition at 5 µM [5]: < 79%
inhibition at 5 µM [6]: 80 to 89%
inhibition at 5 µM [7]: ≥ 95%
kinase inhibition, EPH [8]: D (D=79% and less)
inhibition at 5 µM [9]: ≥ 95%
inhibition at 5 µM [10]: 90 to 94%
inhibition at 5 µM [11]: < 79%
inhibition at 5 µM [12]: 80 to 89%
inhibition at 5 µM [13]: < 79%
inhibition at 5 µM [14]: < 79%
inhibition at 5 µM [15]: < 79%
SMILES: CCOC(=O)Nc1cn2nc(Nc3cc(NC(=O)c4cc([S+](C)[O-])n(-c5ccc(F)cc5)n4)ccc3C)ccc2n1 (stereo not drawn) [Ex18, ethyl (6-((5-(1-(4-fluorophenyl)-5-(methylsulfinyl)-1H-pyrazole-3-carboxamido)-2-methylphenyl)amino)imidazo[1,2-b]pyridazin-2-yl)carbamate]

Reference: patent publication US20240400577A1, “MODULATORS OF PROTEIN KINASES” (VIBLIOME THERAPEUTICS, LLC, priority 2021, published 2024)
